Assay results: US6514911B1, “Substituted oxadiazines useful as pesticides” (Uniroyal Chemical Company, Inc., priority 2002, dated 2003)

Legend:
Format in all cases: in vivo
[1] = test system: green foxtail (Setaria virdis (L.) Beauv.) (GF); test: Preemergence herbicide test, soil drench, green foxtail; settings: 10 lbs/A (11.2 kg/ha) soil drench, two weeks after treatment, vs untreated checks; for pest or weed control at 11208.5 g/ha: Setaria, 336 h, read-out: Percent Weed Control GF
Procedure: To illustrate the effectiveness of the previously described substituted oxadiazines of this invention as preemergence herbicides, 300 mg of the chemical was dissolved in a composition comprising 10 mL acetone to which 30 mg of tile emulsifying agent, ethoxylated sorbitan monolaurate, was added. The solution was diluted to 100 mL with distilled water. Ten milliliters of this 3000 ppm solution was diluted to 250 ppm with distilled water. The chemical was applied at the rate of 10 pounds/acre (11.2 kg/ha) by drenchings 46 mL of the 250 ppm solution on the surface of soil in 41⁄2 inch (11.25 cm) plastic pots wherein seeds of the following weeds had been planted: green foxtail (Setaria […].) Beauv.) (GF). The percent control of the weeds compared to untreated checks was determined two weeks after treatment. TABLE 1 summarizes the results achieved with compounds formulated as indicated above, and the data clearly indicate the good to excellent herbicidal efficacy of compositions of this invention.

[2] = test system: barnyardgrass (Echinochloa crus-galli (L.) Beauv.) (BG); test: Preemergence herbicide test, soil drench, barnyardgrass; settings: 10 lbs/A (11.2 kg/ha) soil drench, two weeks after treatment, vs untreated checks; for pest or weed control at 11208.5 g/ha: Echinochloa crus-galli, 336 h, read-out: Percent Weed Control BG
Procedure: (§1) To illustrate the effectiveness of the previously described substituted oxadiazines of this invention as preemergence herbicides, 300 mg of the chemical was dissolved in a composition comprising 10 mL acetone to which 30 mg of tile emulsifying agent, ethoxylated sorbitan monolaurate, was added. The solution was diluted to 100 mL with distilled water. Ten milliliters of this 3000 ppm solution was diluted to 250 ppm with distilled water. The chemical was applied at the rate of 10 pounds/acre (11.2 kg/ha) by drenchings 46 mL of the 250 ppm solution on the surface of soil in 4½ inch (11.25 cm) plastic pots wherein seeds of the following weeds had been planted: barnyardgrass (Echinochloa crus-galli (L.) Beauv.) (BG), and The percent control of the weeds compared to untreated checks was determined two weeks after treatment. TABLE 1 summarizes the results achieved with compounds formulated as indicated above, and the data clearly indicate the good to excellent herbicidal efficacy of compositions of this invention.

[3] = test system: switchgrass (Panicum virgahim L.) (SG); test: Preemergence herbicide test, soil drench, switchgrass; settings: 10 lbs/A (11.2 kg/ha) soil drench, two weeks after treatment, vs untreated checks; for pest or weed control at 11208.5 g/ha: Panicum, 336 h, read-out: Percent Weed Control SG
Procedure: (§2) To illustrate the effectiveness of the previously described substituted oxadiazines of this invention as preemergence herbicides, 300 mg of the chemical was dissolved in a composition comprising 10 mL acetone to which 30 mg of tile emulsifying agent, ethoxylated sorbitan monolaurate, was added. The solution was diluted to 100 mL with distilled water. Ten milliliters of this 3000 ppm solution was diluted to 250 ppm with distilled water. The chemical was applied at the rate of 10 pounds/acre (11.2 kg/ha) by drenchings 46 mL of the 250 ppm solution on the surface of soil in 4½ inch (11.25 cm) plastic pots wherein seeds of the following weeds had been planted:
switchgrass (Panicum virgahim L.) (SG),
(§3) The percent control of the weeds compared to untreated checks was determined two weeks after treatment. TABLE 1 summarizes the results achieved with compounds formulated as indicated above, and the data clearly indicate the good to excellent herbicidal efficacy of compositions of this invention.

[4] = test system: tall morningglory (Ipomoea purpurea (L.) Roth) (TM); test: Preemergence herbicide test, soil drench, tall morningglory; settings: 10 lbs/A (11.2 kg/ha) soil drench, two weeks after treatment, vs untreated checks; for pest or weed control at 11208.5 g/ha: Ipomoea, 336 h, read-out: Percent Weed Control TM
Procedure: as §1, with “tall morningglory (Ipomoea purpurea” for “barnyardgrass (Echinochloa crus-galli”, “Roth) (TM),” for “Beauv.) (BG), and”

[5] = test system: velvetleaf (Abutilon theophrasti Medik.) (VL); test: Preemergence herbicide test, soil drench, velvetleaf; settings: 10 lbs/A (11.2 kg/ha) soil drench, two weeks after treatment, vs untreated checks; for pest or weed control at 11208.5 g/ha: Abutilon theophrasti, 336 h, read-out: Percent Weed Control VL
Procedure: as §1, with “velvetleaf (Abutilon theophrasti Medik.) (VL),” for “barnyardgrass (Echinochloa crus-galli (L.) Beauv.) (BG), and”

[6] = test system: jimsonweed (Datura stramonium L.) (JW); test: Preemergence herbicide test, soil drench, jimsonweed; settings: 10 lbs/A (11.2 kg/ha) soil drench, two weeks after treatment, vs untreated checks
Procedure: as §1, with “jimsonweed (Datura stramonium L.) (JW),” for “barnyardgrass (Echinochloa crus-galli (L.) Beauv.) (BG), and”

[7] = test system: prickly sida (Sida spinosa L.) (PS); test: Preemergence herbicide test, soil drench, prickly sida; settings: 10 lbs/A (11.2 kg/ha) soil drench, two weeks after treatment, vs untreated checks; for pest or weed control at 11208.5 g/ha: Sida spinosa, 336 h, read-out: Percent Weed Control PS
Procedure: as §2, with “The chemical was applied at the rate of 10 pounds/acre (11.2 kg/ha) by drenchings 46 mL of the 250 ppm solution on the surface of soil in 4½ inch (11.25 cm) plastic pots wherein seeds of the following weeds had been planted:” left out
prickly sida (Sida spinosa L.) (PS),
as §3

| Compound | pest or weed control at 11208.5 g/ha [1] [%] | pest or weed control at 11208.5 g/ha [2] [%] | pest or weed control at 11208.5 g/ha [3] [%] | pest or weed control at 11208.5 g/ha [4] [%] | pest or weed control at 11208.5 g/ha [5] [%] | Percent Weed Control JW [6] [%] | Percent Weed Control GF [1] [%] | Percent Weed Control BG [2] [%] | Percent Weed Control SG [3] [%] | Percent Weed Control TM [4] [%] | Percent Weed Control VL [5] [%] | pest or weed control at 11208.5 g/ha [7] [%] | Percent Weed Control PS [7] [%] |
| --- | --- | --- | --- | --- | --- | --- | --- | --- | --- | --- | --- | --- | --- |
| FC(F)(F)C1=NC(C(F)(F)F)(C(F)(F)F)N=C(c2ccc(Cl)cc2)O1 [Compound 5, 2-(4-chlorophenyl)-4,4,6-tris(trifluoromethyl)-4H-1,3,5-oxadiazine] | 100 | 100 | 100 | 100 | 100 | 100 |  |  |  |  |  |  |  |
| FC(F)(F)C1=NC(C(F)(F)F)(C(F)(F)F)N=C(c2ccccc2C(F)(F)F)O1 [Compound 6, 2,4,4-tris(trifluoromethyl)-6-{(2-trifluoromethyl)phenyl}-4H-1,3,5-oxadiazine] |  |  |  |  |  | 75 | 100 | 50 | 75 | 100 | 100 |  |  |
| FC(F)(F)C(F)(F)C1=NC(C(F)(F)F)(C(F)(F)F)N=C(c2ccccc2Cl)O1 [Compound 12, 2-(2-chlorophenyl)-6-(pentafluoroethyl)-4,4-bis(trifluoromethyl)-4H-1,3,5-oxadiazine] | 100 | 0 | 75 | 100 | 100 | 100 |  |  |  |  |  |  |  |
| FC(F)(F)c1cc(C2=NC(C(F)(F)F)(C(F)(F)F)N=C(C(F)(F)C(F)(F)F)O2)cc(C(F)(F)F)c1 [Compound 18, 2-{3,5-bis(trifluoromethyl)phenyl}-6-(pentafluoroethyl)-4,4-bis(trifluoromethyl)-4H-1,3,5-oxadiazine] | 100 | 100 | 100 | 100 | 100 |  |  |  |  |  |  | 100 |  |
| Fc1cc(F)cc(C2=NC(C(F)(F)F)(C(F)(F)F)N=C(C(F)(F)C(F)(F)F)O2)c1 [Compound 19, 2-(3,5-difluorophenyl)-6-(pentafluoroethyl)-4,4-bis(trifluoromethyl)-4H-1,3,5-oxadiazine] | 100 | 100 | 100 | 100 | 100 |  |  |  |  |  |  | 100 |  |
| FC(F)(F)C(F)(F)C1=NC(C(F)(F)F)(C(F)(F)F)N=C(c2cc(Cl)cc(Cl)c2)O1 [Compound 21, 2-(3,5-dichlorophenyl)-6-(pentafluoroethyl)-4,4-bis(trifluoromethyl)-4H-1,3,5-oxadiazine] | 100 | 100 | 100 | 100 | 100 | 100 |  |  |  |  |  |  |  |
| Cc1cccc(C2=NC(C(F)(F)F)(C(F)(F)F)N=C(C(F)(F)C(F)(F)F)O2)c1 [Compound 22, 2-(3-methylphenyl)-6-(pentafluoroethyl)-4,4-bis(trifluoromethyl)-4H-1,3,5-oxadiazine] | 50 | 0 | 0 | 0 | 100 | 100 |  |  |  |  |  |  |  |
| FC(F)(F)C(F)(F)C(F)(F)C1=NC(C(F)(F)F)(C(F)(F)F)N=C(c2ccc(Br)cc2)O1 [Compound 27, 2-(4-bromophenyl)-6-(heptafluoropropyl)-4,4-bis(trifluoromethyl)-4H-1,3,5-oxadiazine] | 0 | 0 | 0 | 95 | 100 |  |  |  |  |  |  | 100 |  |
| Fc1ccc(C2=NC(C(F)(F)F)(C(F)(F)F)N=C(C(F)(F)C(F)(F)C(F)(F)F)O2)cc1 [Compound 28, 2-(4-fluorophenyl)-6-(heptafluoropropyl)-4,4-bis(trifluoromethyl)-4H-1,3,5-oxadiazine] | 0 | 0 | 0 | 100 | 100 |  |  |  |  |  |  | 100 |  |
| FC(F)(F)c1cccc(C2=NC(C(F)(F)F)(C(F)(F)F)N=C(C(F)(F)C(F)(F)C(F)(F)F)O2)c1 [Compound 29, 2-(heptafluoropropyl)-4,4-bis(trifluoromethyl)-6-{(3-trifluoromethyl)phenyl}-4H-1,3,5-oxadiazine] |  |  |  |  |  |  | 100 | 100 | 100 | 100 | 100 |  | 100 |
| FC(F)(F)c1ccc(C2=NC(C(F)(F)F)(C(F)(F)F)N=C(C(F)(F)C(F)(F)C(F)(F)F)O2)cc1 [Compound 30, 2-(heptafluoropropyl)-4,4-bis(trifluoromethyl)-6-{(4-trifluoromethyl)phenyl}-4H-1,3,5-oxadiazine] |  |  |  |  |  |  | 100 | 100 | 100 | 100 | 100 |  | 100 |
